Key:
Format in all cases: in vivo
[1] = system: common (oilseed) sunflower (Helianthus annuus); assay: Test B pre-/postemergence plant response; details: Preemergence
Method in brief: (§1)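 Preemergence and postemergence (plants 2-18 cm, 1- to 4-leaf stage) applications used test chemicals in a non-phytotoxic solvent with surfactant. Plants were held in a greenhouse 13 to 15 days, then rated visually against controls on a 0-100 scale (0 no effect, 100 complete control).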

[2] = system: common ragweed (Ambrosia elation); assay: Test B pre-/postemergence plant response
Method in brief: as §1

[3] = system: eastern black (E.B.) nightshade (Solanum ptycanthum); assay: Test B pre-/postemergence plant response; details: Preemergence
Method in brief: as §1

[4] = system: giant foxtail (Setaria faberii); assay: Test B pre-/postemergence plant response
Method in brief: as §1

[5] = system: goosegrass (Eleusine indica); assay: Test B pre-/postemergence plant response
Method in brief: as §1

[6] = system: green foxtail (Setaria viridis); assay: Test B pre-/postemergence plant response
Method in brief: as §1

[7] = system: johnsongrass (Sorghum halepense); assay: Test B pre-/postemergence plant response
Method in brief: as §1

[8] = system: large crabgrass (Digitaria sanguinalis); assay: Test B pre-/postemergence plant response
Method in brief: as §1

[9] = system: pigweed (Amaranthus retroflexus); assay: Test B pre-/postemergence plant response
Method in brief: as §1

[10] = system: velvetleaf (Abutilon theophrasti); assay: Test B pre-/postemergence plant response
Method in brief: as §1

wild oat (Avena fatua) = assay: Test B pre-/postemergence plant response
Method in brief: as §1

[11] = system: woolly cupgrass (Eriochloa villosa); assay: Test B pre-/postemergence plant response
Method in brief: as §1

[12] = system: ducksalad (Heteranthera limosa); assay: Test B flooded paddy test plant response
Method in brief: (§2)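 Compounds were added directly to paddy water over 2-leaf-stage plants in pots flooded 3 cm above soil, water depth maintained. Visual injury scored against controls after 13 to 15 days in greenhouse, 0 (none) to 100 (complete control); dash indicates no result.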

rice (Oryza sativa) = assay: Test B flooded paddy test plant response
Method in brief: as §2

[13] = 8 g ai/ha, scale 0 to 100 (0 no effect, 100 complete control)
[14] = 31 g ai/ha, scale 0 to 100 (0 no effect, 100 complete control)
[15] = 62 g ai/ha, 0 to 100 scale, 0 no effect, 100 complete control
[16] = 8 g ai/ha, postemergence, 0-100 scale
[17] = 16 g ai/ha, postemergence, 0-100 scale
[18] = Postemergence, 31 g ai/ha, scale 0 to 100
[19] = Postemergence, 62 g ai/ha, scale 0 to 100, 0 no effect, 100 complete control
[20] = Preemergence, 8 g ai/ha, scale 0 to 100 (0 no effect, 100 complete control)
[21] = Preemergence, 31 g ai/ha, scale 0 to 100 (0 no effect, 100 complete control)
[22] = Preemergence, 62 g ai/ha, 0 to 100 scale, 0 no effect, 100 complete control
[23] = Preemergence, 16 g ai/ha, scale 0 to 100
[24] = Postemergence, 16 g ai/ha, scale 0 to 100
[25] = Flood (flooded paddy test), 62 g ai/ha, scale 0 to 100, 0 no effect, 100 complete control
[26] = Flood (flooded paddy test), 125 g ai/ha, scale 0 to 100, 0 no effect, 100 complete control
[27] = Flood (flooded paddy test), 250 g ai/ha, scale 0 to 100, 0 no effect, 100 complete control
[28] = Flood, 31 g ai/ha, scale 0 to 100

Cc1nn(C)c(=O)c(-n2nc(-c3ccc(Br)cc3)cc2C)c1O [Compound 81]
Sunflower plant response rating [1, 13]: 0
Plant response rating, Sunflower [1, 14]: 15
Plant response rating, Sunflower [1, 15]: 20
Sunflower plant response rating ([1]; 16 g ai/ha, scale 0 to 100): 0
Ragweed plant response rating [2, 16]: 0
Ragweed plant response rating [2, 17]: 0
Plant response rating, Ragweed [2, 18]: 0
Plant response rating, Ragweed [2, 19]: 20
Ragweed plant response rating [2, 20]: 0
Plant response rating, Ragweed [2, 21]: 0
Plant response rating, Ragweed [2, 22]: 0
Ragweed plant response rating [2, 23]: 0
Nightshade, E. B. plant response rating [3, 13]: 0
Plant response rating, Nightshade, E. B. [3, 14]: 0
Plant response rating, Nightshade, E. B. [3, 15]: 50
Nightshade, E. B. plant response rating ([3]; 16 g ai/ha, scale 0 to 100): 0
Foxtail, Giant plant response rating [4, 16]: 80
Plant response rating, Foxtail, Giant [4, 24]: 85
Plant response rating, Foxtail, Giant [4, 18]: 98
Plant response rating, Foxtail, Giant [4, 19]: 100
Foxtail, Giant plant response rating [4, 20]: 80
Plant response rating, Foxtail, Giant [4, 21]: 100
Plant response rating, Foxtail, Giant [4, 22]: 100
Foxtail, Giant plant response rating [4, 23]: 100
Goosegrass plant response rating [5, 16]: 65
Goosegrass plant response rating [5, 17]: 70
Plant response rating, Goosegrass [5, 18]: 80
Plant response rating, Goosegrass [5, 19]: 85
Goosegrass plant response rating [5, 20]: 80
Plant response rating, Goosegrass [5, 21]: 100
Plant response rating, Goosegrass [5, 22]: 100
Goosegrass plant response rating [5, 23]: 98
Foxtail, Green plant response rating [6, 16]: 85
Plant response rating, Foxtail, Green [6, 24]: 90
Plant response rating, Foxtail, Green [6, 18]: 95
Plant response rating, Foxtail, Green [6, 19]: 98
Foxtail, Green plant response rating [6, 20]: 40
Plant response rating, Foxtail, Green [6, 21]: 100
Plant response rating, Foxtail, Green [6, 22]: 100
Foxtail, Green plant response rating [6, 23]: 80
Johnsongrass plant response rating [7, 16]: 75
Johnsongrass plant response rating [7, 17]: 95
Plant response rating, Johnsongrass [7, 19]: 100
Johnsongrass plant response rating [7, 20]: 60
Plant response rating, Johnsongrass [7, 21]: 95
Plant response rating, Johnsongrass [7, 22]: 95
Johnsongrass plant response rating [7, 23]: 80
Crabgrass, Large plant response rating [8, 16]: 50
Plant response rating, Crabgrass, Large [8, 24]: 98
Plant response rating, Crabgrass, Large [8, 18]: 100
Plant response rating, Crabgrass, Large [8, 19]: 100
Crabgrass, Large plant response rating [8, 20]: 65
Plant response rating, Crabgrass, Large [8, 21]: 100
Plant response rating, Crabgrass, Large [8, 22]: 100
Crabgrass, Large plant response rating [8, 23]: 98
Pigweed plant response rating [9, 16]: 0
Pigweed plant response rating [9, 17]: 0
Plant response rating, Pigweed [9, 18]: 0
Plant response rating, Pigweed [9, 19]: 0
Pigweed plant response rating [9, 20]: 0
Plant response rating, Pigweed [9, 21]: 0
Plant response rating, Pigweed [9, 22]: 55
Pigweed plant response rating [9, 23]: 0
Velvetleaf plant response rating [10, 16]: 0
Velvetleaf plant response rating [10, 17]: 0
Plant response rating, Velvetleaf [10, 18]: 0
Plant response rating, Velvetleaf [10, 19]: 0
Velvetleaf plant response rating [10, 20]: 0
Plant response rating, Velvetleaf [10, 21]: 0
Plant response rating, Velvetleaf [10, 22]: 0
Velvetleaf plant response rating [10, 23]: 0
Oat, Wild plant response rating (wild oat (Avena fatua); [16]): 80
Oat, Wild plant response rating (wild oat (Avena fatua); [17]): 95
Plant response rating, Oat, Wild (wild oat (Avena fatua); [18]): 100
Plant response rating, Oat, Wild (wild oat (Avena fatua); [19]): 100
Oat, Wild plant response rating (wild oat (Avena fatua); [20]): 45
Plant response rating, Oat, Wild (wild oat (Avena fatua); [21]): 70
Plant response rating, Oat, Wild (wild oat (Avena fatua); [22]): 85
Oat, Wild plant response rating (wild oat (Avena fatua); [23]): 60
Cupgrass, Woolly plant response rating [11, 16]: 75
Plant response rating, Cupgrass, Woolly [11, 24]: 85
Plant response rating, Cupgrass, Woolly [11, 18]: 95
Plant response rating, Cupgrass, Woolly [11, 19]: 98
Cupgrass, Woolly plant response rating [11, 20]: 20
Plant response rating, Cupgrass, Woolly [11, 21]: 95
Plant response rating, Cupgrass, Woolly [11, 22]: 98
Cupgrass, Woolly plant response rating [11, 23]: 45
Plant response rating, Ducksalad [12, 25]: 0
Plant response rating, Ducksalad [12, 26]: 0
Plant response rating, Ducksalad [12, 27]: 0
Plant response rating, Ducksalad [12, 28]: 0
Plant response rating, Rice (rice (Oryza sativa); [25]): 0
Plant response rating, Rice (rice (Oryza sativa); [26]): 0
Plant response rating, Rice (rice (Oryza sativa); [27]): 0
Plant response rating, Rice (rice (Oryza sativa); [28]): 0

Source: patent US20100267561A1, “HERBICIDAL PYRIDAZINONE DERIVATIVES” (priority 2007, published 2010)
